Tested on: MFC (mouse stomach cancer) homografts
Assay: MFC homograft (syngeneic) growth inhibition in 615 mice
Assay type: in vivo
Details: ITE 200-300 mg/kg i.p. once daily
Procedure: All the procedures related to animal handling, care, and the treatment in the study were performed following guidelines of KeyGen Biotechn Co., Ltd. (Nanjing, China), a contract research organization we hired, based on the guidance of the Association for Assessment and Accreditation of Laboratory Animal Care (AAALAC). Animals were checked for any effects of tumor growth and drug treatment on normal behavior such as mobility, food and water consumption, body weight gain/loss (bodyweights were measured every two days), eye/hair matting, and any other abnormal effect. Death and observed clinical signs were recorded. Individual animals with a tumor volume exceeding 3,000 mm^3 or animals of a group with a mean tumor volume exceeding 2,000 mm^3 were euthanized. In addition, animals showing signs of severe distress and/or pain or losing the capability of accessing adequate food or water were humanely sacrificed.
Cell lines HCT116, Siha, MFC were cultured in DMEM medium (high glucose) supplemented with 10% fetal bovine serum (FBS), SW116 and T24 in RPMI-1640 medium with 10% FBS, M14 and A375 in DMEM medium (high glucose) with 10% calf serum (CS), SGC7901 and Ketr-3 in RPMI-1640 medium with 10% CS, and CFPAC-1 in IMDM medium with 10% FBS. All of the cells were cultured, in the presence of 100 U/ml penicillin and 100 μg/ml streptomycin, at 37° C. in an atmosphere of 5% CO2 in air. […] The cells growing in an exponential phase were harvested and counted for tumor inoculation. Cell lines 5180 and U14 were maintained in ascites (peritoneal cavity fluid) of mice and were harvested and counted for tumor inoculation. […]
Tumor volume was measured every two days in two dimensions using a caliper and the volume was calculated with a formula of: V=0.5 a×b^2, where a and b are the long and short diameter (in mm) of a tumor, respectively. […] The TGD was calculated as: TGD=T−C, where T was the time (in days) required for tumors in a drug treated group to reach a predetermined mean tumor volume and C the time (in days) in the control group to reach the same volume. […]

COC(=O)c1csc(C(=O)c2c[nH]c3ccccc23)n1 [ITE, 2-(1′H-indole-3′-carbonyl)-thiazole-4-carboxylic acid methyl ester] was tested, and the TGD (TGD at Vol. 2,000) was 9 days, the “TGI (%)” value (TGI at day 10, TGI=(1−ΔT/ΔC)×100%) was 70% and the “Weight Loss” value (end of therapy relative to beginning) was 16%.
